The target of assay [1] is BIR3 domain of human XIAP (residues 252-350) (Homo sapiens (Human), UniProt P98170). Put plainly: XIAP in vitro competitive displacement binding assay (fluorescence polarization). The conditions noted are these: for IC50: read-out: IC50 or PI Xiap: IC50; for inhibition at 0.04 µM: 1 h, read-out: IC50 or PI Xiap: PI. A general note: Polarisation of emitted light reports the rotation of a fluorescent probe.

The target in assay [2] is BIR3 domain of human cIAP-1 (residues 267-363) (Homo sapiens (Human), UniProt Q13490). Put plainly: cIAP-1 in vitro competitive displacement binding assay (fluorescence polarization; Probe A AVPIK(5&6FAM)-amide or Probe B AbuRPFK(5&6FAM)-amide). The conditions noted are these: for inhibition at […]: 3 h, read-out: IC50 or PI cIAP1: PI.
Assay [3] has as its system EVSA-T (human breast carcinoma). Put plainly: Anti-proliferative activity, Alamar Blue assay, EVSA-T. The conditions noted are these: Homo sapiens, EVSA-T, read-out: EVSA-T prolif (EC50). It counts as cell-based. For orientation: Alamar Blue is a resazurin reagent that responds to reducing activity.
Setting [4] is: Probe B AbuRPFK(5&6FAM)-amide, read-out: IC50 or PI cIAP1: IC50.

Counter-ions that a name gives are not always drawn. Like-named read-outs stand apart in the source and are kept apart here.

The IC50 is the point on the concentration scale where inhibition reaches its midpoint. For orientation: EC50 means the concentration at which the effect is half-maximal. On to `C[C@@H]1CN(CC(=O)N2CC(C)(C)c3cnc(Cc4ccc(F)cc4F)cc32)[C@@H](C(=O)N(C)C)CN1` [Example 164, (2R,5R)-1-(2-{6-[(2,4-Difluorophenyl)methyl]-3,3-dimethyl-1H,2H,3H-pyrrolo[3,2-c]pyridin-1-yl}-2-oxoethyl)-N,N,5-trimethylpiperazine-2-carboxamide dihydrochloride], for which the IC50 in assay [1] turned out to be 120 nM. The inhibition at […] in assay [2] amounted to 86%. In addition, the EC50 in assay [3] (72 h) was 45 nM.

Regarding `C[C@@H]1CN(CC(=O)N2CC(C)(C)c3cnc(Oc4ccccc4Cl)cc32)[C@@H](C(=O)N2CCOCC2)CN1` [Example 165, 1-[6-(2-Chlorophenoxy)-3,3-dimethyl-1H,2H,3H-pyrrolo[3,2-c]pyridin-1-yl]-2-[(2R,5R)-5-methyl-2-[(morpholin-4-yl)carbonyl]piperazin-1-yl]ethan-1-one dihydrochloride], in assay [1], the inhibition at 0.04 µM was found to be 65%. The values for the IC50 in assay [2] and in assay [2] (read-out: IC50 or PI cIAP1: IC50) were below 1000 nM and 14 nM, respectively. For the same compound, the EC50 in assay [3] (72 h) came to 650 nM.

Turning to `COC[C@H]1CN[C@H](C)CN1CC(=O)N1CC(C)(C)c2c[n+]([O-])c(Cc3ccc(F)cc3F)cc21` [Example 166, 6-[(2,4-Difluorophenyl)methyl]-1-{2-[(2R,5R)-2-(methoxymethyl)-5-methylpiperazin-1-yl]acetyl}-3,3-dimethyl-1H,2H,3H-1,5λ^5-pyrrolo[3,2-c][1λ^5]pyridin-5-one hydrochloride], the IC50 in assay [1] turned out to be 150 nM. The inhibition at […] in assay [2] (Probe B, @ 0.012 μM) is 76%. In addition, the EC50 in assay [3] (72 hours, Alamar Blue) worked out at 130 nM.

With `C[C@@H]1CN(CC(=O)N2CC(C)(C)c3c[n+]([O-])c(Cc4ccc(F)cc4F)cc32)[C@@H](C(=O)N(C)C)CN1` [Example 167, (2R,5R)-1-(2-{6-[(2,4-Difluorophenyl)methyl]-3,3-dimethyl-5-oxo-1H,2H,3H-1,5λ^5-pyrrolo[3,2-c][1λ^5]pyridin-1-yl}-2-oxoethyl)-N,N,5-trimethylpiperazine-2-carboxamide hydrochloride], the IC50 in assay [1] was determined as 100 nM. Further, the inhibition at […] in assay [2] (Probe B, @ 0.012 μM) stood at 84%. Also, the EC50 in assay [3] (72 hours, Alamar Blue) was found to be 260 nM.

For `C[C@@H]1CN(CC(=O)N2CC(C)(C)c3cnc(Cc4ccccc4)cc32)[C@@H](CN2CCCC2=O)CN1` [Example 172, 1-{[(2R,5R)-1-(2-{6-Benzyl-3,3-dimethyl-1H,2H,3H-pyrrolo[3,2-c]pyridin-1-yl}-2-oxoethyl)-5-methylpiperazin-2-yl]methyl}pyrrolidin-2-one dihydrochloride], the inhibition at 0.04 µM in assay [1] is 58%. Also, in assay [2], the inhibition at […] stood at 78%. Also, in assay [3] (72 hours, Alamar Blue), the EC50 turned out to be 56 nM.

On to `C[C@@H]1CN(CC(=O)N2CC(C)(C)c3cnc(C(F)(F)c4ccccc4)cc32)[C@@H](CN2CCCC2=O)CN1` [Example 173, 1-{[(2R,5R)-1-(2-{6-[Difluoro(phenyl)methyl]-3,3-dimethyl-1H,2H,3H-pyrrolo[3,2-c]pyridin-1-yl}-2-oxoethyl)-5-methylpiperazin-2-yl]methyl}pyrrolidin-2-one dihydrochloride], for which the inhibition at 0.04 µM in assay [1] was found to be 73%. For the same compound, the inhibition at […] in assay [2] came out at 80%. In addition, the EC50 in assay [3] (72 hours, Alamar Blue) is 36 nM.

For the compound `COC[C@H]1CN[C@H](C)CN1CC(=O)N1C[C@](C)(c2cc(C)no2)c2ccc(Cc3ccccc3)cc21` [Example 174, 1-[(3R)-6-Benzyl-3-methyl-3-(3-methyl-1,2-oxazol-5-yl)-2,3-dihydro-1H-indol-1-yl]-2-[(2R,5R)-2-(methoxymethyl)-5-methylpiperazin-1-yl]ethan-1-one hydrochloride], the IC50 in assay [1] was 760 nM; in assay [2], below 1000 nM; in assay [2] (setting [4]), 190 nM. In addition, the EC50 in assay [3] (72 hours, Alamar Blue) was found to be 2500 nM.

For the compound `COC[C@H]1CN[C@H](C)CN1CC(=O)N1C[C@@](C)(c2cc(C)no2)c2ccc(Cc3ccccc3)cc21` [Example 175, 1-[(3S)-6-Benzyl-3-methyl-3-(3-methyl-1,2-oxazol-5-yl)-2,3-dihydro-1H-indol-1-yl]-2-[(2R,5R)-2-(methoxymethyl)-5-methylpiperazin-1-yl]ethan-1-one hydrochloride], the IC50 in assay [1] was 110 nM; in assay [2], below 1000 nM; in assay [2] (setting [4]) it was 11 nM. Also, the EC50 in assay [3] (72 hours, Alamar Blue) was 200 nM.

Take `C[C@@H]1CN(CC(=O)N2CC(C)(C)c3cnc(C(F)(F)c4ccccc4)cc32)[C@@H](Cn2cc(F)cn2)CN1` [Example 176, 1-{6-[Difluoro(phenyl)methyl]-3,3-dimethyl-1H,2H,3H-pyrrolo[3,2-c]pyridin-1-yl}-2-[(2R,5R)-2-[(4-fluoro-1H-pyrazol-1-yl)methyl]-5-methylpiperazin-1-yl]ethan-1-one hydrochloride]: the inhibition at 0.04 µM in assay [1] (@ 0.04 μM) came to 52%. Also, the inhibition at […] in assay [2] (Probe B, @ 0.012 μM) came out at 70%. Further, the EC50 in assay [3] (72 hours, Alamar Blue) was 26 nM.

Turning to `C[C@@H]1CN(CC(=O)N2CC(C)(C)c3cnc(Oc4ccccc4Cl)cc32)[C@@H](Cn2cc(F)cn2)CN1` [Example 177, 1-[6-(2-Chlorophenoxy)-3,3-dimethyl-1H,2H,3H-pyrrolo[3,2-c]pyridin-1-yl]-2-[(2R,5R)-2-[(4-fluoro-1H-pyrazol-1-yl)methyl]-5-methylpiperazin-1-yl]ethan-1-one hydrochloride], the IC50 in assay [1] is 49 nM; in assay [2], below 1000 nM; in assay [2] (setting [4]) it was 18 nM. Moreover, the EC50 in assay [3] (72 hours, Alamar Blue) came to 270 nM.

Regarding `C[C@@H]1CN(CC(=O)N2CC(C)(C)c3cnc(C(F)(F)c4ccccc4)cc32)[C@@H](C(=O)N2CCOCC2)CN1` [Example 178, 1-{6-[Difluoro(phenyl)methyl]-3,3-dimethyl-1H,2H,3H-pyrrolo[3,2-c]pyridin-1-yl}-2-[(2R,5R)-5-methyl-2-[(morpholin-4-yl)carbonyl]piperazin-1-yl]ethan-1-one dihydrochloride], the inhibition at 0.04 µM in assay [1] came to 50%. Moreover, the inhibition at […] in assay [2] was 60%. The EC50 in assay [3] (72 hours, Alamar Blue) was 67 nM.

Turning to `C[C@@H]1CN(CC(=O)N2CC(C)(C)c3cnc(Cc4ccc(F)cc4F)cc32)[C@@H](Cn2cccnc2=O)CN1` [Example 185, 1-{[(2R,5R)-1-(2-{6-[(2,4-Difluorophenyl)methyl]-3,3-dimethyl-1H,2H,3H-pyrrolo[3,2-c]pyridin-1-yl}-2-oxoethyl)-5-methylpiperazin-2-yl]methyl}-1,2-dihydropyrimidin-2-one dihydrochloride], the IC50 in assay [1] was found to be 77 nM. The inhibition at […] in assay [2] was found to be 94%. Moreover, the EC50 in assay [3] (72 h) was found to be 10 nM.

For the compound `CCC(F)(F)c1cnc2c(c1)N(C(=O)CN1C[C@@H](C)NC[C@@H]1CN1CCOC[C@H]1C)CC2(C)C` [Example 186, 1-[6-(1,1-Difluoropropyl)-3,3-dimethyl-1H,2H,3H-pyrrolo[3,2-b]pyridin-1-yl]-2-[(2R,5R)-5-methyl-2-{[(3R)-3-methylmorpholin-4-yl]methyl}piperazin-1-yl]ethan-1-one, a hydrochloride salt], the inhibition at 0.04 µM in assay [1] (@ 0.04 μM) was determined as 59%. In assay [2] (setting [4]), the IC50 was 11 nM. Besides, in assay [3] (72 hours, Alamar Blue), the EC50 was 25 nM.

In the case of `C[C@@H]1CN(CC(=O)N2CC(C)(C)c3cnc(Oc4ccccc4Cl)cc32)[C@@H](CN2CCOC2=O)CN1` [Example 189, 3-{[(2R,5R)-1-{2-[6-(2-Chlorophenoxy)-3,3-dimethyl-1H,2H,3H-pyrrolo[3,2-c]pyridin-1-yl]-2-oxoethyl}-5-methylpiperazin-2-yl]methyl}-1,3-oxazolidin-2-one hydrochloride], in assay [1] (@ 0.04 μM), the inhibition at 0.04 µM was 70%. Moreover, in assay [2] (setting [4]), the IC50 is 14 nM. Also, the EC50 in assay [3] (72 hours, Alamar Blue) worked out at 190 nM.

Turning to `C[C@@H]1CN(CC(=O)N2CC(C)(C)c3cnc(Cc4ccc(F)cc4F)cc32)[C@@H](CN2CCOCC2=O)CN1` [Example 191, 4-{[(2R,5R)-1-(2-{6-[(2,4-Difluorophenyl)methyl]-3,3-dimethyl-1H,2H,3H-pyrrolo[3,2-c]pyridin-1-yl}-2-oxoethyl)-5-methylpiperazin-2-yl]methyl}morpholin-3-one hydrochloride], the IC50 in assay [1] was determined as 47 nM. Moreover, the inhibition at […] in assay [2] (Probe B, @ 0.012 μM) was found to be 94%. In assay [3] (72 hours, Alamar Blue), the EC50 turned out to be 17 nM.

Turning to `C[C@@H]1CN(CC(=O)N2CC(C)(C)c3cnc(Cc4ccc(F)cc4F)cc32)[C@@H](CN2CCCCC2=O)CN1` [Example 192, 1-{[(2R,5R)-1-(2-{6-[(2,4-Difluorophenyl)methyl]-3,3-dimethyl-1H,2H,3H-pyrrolo[3,2-c]pyridin-1-yl}-2-oxoethyl)-5-methylpiperazin-2-yl]methyl}piperidin-2-one hydrochloride], the IC50 in assay [1] was 58 nM. Besides, the inhibition at […] in assay [2] (Probe B, @ 0.012 μM) was 95%. Also, the EC50 in assay [3] (72 hours, Alamar Blue) came to 8.8 nM.

For the compound `C[C@@H]1CN(CC(=O)N2CC(C)(C)c3cnc(Cc4ccc(F)cc4F)cc32)[C@@H](Cn2ccccc2=O)CN1` [Example 193, 1-{[(2R,5R)-1-(2-{6-[(2,4-Difluorophenyl)methyl]-3,3-dimethyl-1H,2H,3H-pyrrolo[3,2-c]pyridin-1-yl}-2-oxoethyl)-5-methylpiperazin-2-yl]methyl}-1,2-dihydropyridin-2-one dihydrochloride], in assay [1], the inhibition at 0.04 µM was determined as 44%. Besides, the inhibition at […] in assay [2] came to 98%. Further, the EC50 in assay [3] (72 hours, Alamar Blue) is 16 nM.

Regarding `C[C@@H]1CN(CC(=O)N2CC(C)(C)c3cnc(Cc4ccc(F)cc4F)cc32)[C@@H](Cn2ncccc2=O)CN1` [Example 194, 2-{[(2R,5R)-1-(2-{6-[(2,4-Difluorophenyl)methyl]-3,3-dimethyl-1H,2H,3H-pyrrolo[3,2-c]pyridin-1-yl}-2-oxoethyl)-5-methylpiperazin-2-yl]methyl}-2,3-dihydropyridazin-3-one dihydrochloride], the IC50 in assay [1] worked out at 55 nM. Moreover, the inhibition at […] in assay [2] was 99%. For the same compound, the EC50 in assay [3] (72 h) was 9.8 nM.
